Assay results published in patent publication US20250032448A1, “COMPOUND FOR USE IN THE TREATMENT AND/OR PREVENTION OF PARASITIC MEDIATED DISEASES” (priority 2016, published 2025).
In brackets after ≈: the same amount, converted by molar mass. Like-named read-outs stand apart in the source and are kept apart here. Values belong to the molecule of their own block, whether it stands above or below them.

Key:
[1] = tested on: Plasmodium falciparum 3D7 (chloroquine-sensitive strain); experiment: In vitro drug sensitivity assay (modified WHO microtest), schizont maturation; type: cell-based
Method: (§1) For malaria culture, venous blood (not more than 50 ml) was collected by venepuncture from healthy adult volunteers. Host leukocytes were removed using a CF11 column, and packed infected red blood cells were used for the in vitro drug sensitivity assay. Ethical approval for this study was obtained from the Institutional Review Board, National University of Singapore (IRB protocol reference: B-14-056).
(§2) Parasites were thawed and grown in leukocyte-depleted red blood cells at 2% haematocrit at 37° C. in controlled conditions (3% oxygen, 4% carbon dioxide and 93% nitrogen), in RPMI 1640 tissue culture medium supplemented with 50 μg/ml hypoxanthine, 25 mM 4-(2-hydroxyethyl) piperazine-1-ethanesulfonic acid (HEPES), 0.3 g/L L-glutamine, 11 mM glucose, 25 mM NaHCO3, 2.5 μg/ml gentamicin and 0.5% w/v Albumax II.
(§3) Parasites were synchronized using sorbitol treatment. Red blood cells were resuspended in 5% (w/v) D-sorbitol and incubated at 37° C. for 20 minutes, after which the erythrocytes were washed twice, resuspended in RPMI and returned to culture conditions. Thin smears were made before and after each experiment to determine parasitaemia and parasite stage.
(§4) Crude extracts or fractions were preliminarily screened at a single concentration. For preliminary screening of isolated compounds, the starting concentrations used were 11.36 μg/ml and 5.953 μg/ml. Duplicates were performed. […] Seven concentrations of serial dilutions (two-fold) of each extract were added in duplicate on the 96-well pre-dosed drug plates (Nunc, Singapore). […] Triplicates were performed for IC50 determination.
(§5) 200 μl of a 2% haematocrit blood medium mixture consisting of RPMI 1640, […] gentamicin sulphate, 25 mM PEPES, 11 mM glucose, 200 μM hypoxanthine, and 0.5% w/v Albumax II (Gibco, Singapore) was added to each well of plates pre-dosed with the extracts. The parasites were cultured continuously in vented culture flasks in a gas chamber at 37° C. with 5% CO2 until they reached mature stage.
(§6) Thick blood smears were made from each well and stained with 5% Giemsa solution for 15 mins, and examined microscopically. The average number of schizonts (defined as parasites with five or more chromatin dots visible under microscopy) remaining at the end of the 42-48 hour incubation period per 100 parasites in each well was determined by microscopy, and normalized to the control well. Ring stage parasites and gametocytes were not included in the count. The dose-response curves were analysed using nonlinear regression analysis, and the concentration which inhibited 50% growth (IC50) was derived using an inhibitory sigmoid Emax model (Le Nagard et al. 2011).

[2] = tested on: Plasmodium falciparum Dd2 (chloroquine-resistant strain); experiment: as above; type: cell-based
Method: as §1, §2, §3, §4, §5, §6

in vitro = conditions: human
Method: (§7) Serial dilutions were performed using complete media (RPMI supplemented with 10% foetal bovine serum). The final concentration of DMSO for all test samples was not more than 0.4%.
(§8) Cytotoxicity was determined using the WST-1 assay (WST-1 cell proliferation reagent, Roche, Singapore). Exponentially growing NL20 cells were plated in 96-well plates at an optimized cell density of 3.5×10^4 cells/100 μl. The adherent cells were incubated overnight at 37° C. and 5% CO2 to allow attachment. After 48 h of treatment with test samples, the media were aspirated and replaced with 10% v/v WST-1 in complete media. The plates were incubated for 30 min. The absorbance in each well was quantitated at 440 nm against a reference wavelength of 650 nm using a microplate reader (EnSpire Multimode Plate Reader, PerkinElmer, USA).
(§9) Cell viability was expressed as a percentage of the vehicle control. […] Each reported value is the mean±SD from three independent experiments. The selectivity index (SI) was determined by taking the ratio of IC50 against P. falciparum and CC50 against NL20 cells.

NL20 cells = experiment: Cytotoxicity assay (WST-1)
Method: as §7, §8, §9

uninfected host RBCs = type: cell-based; conditions: human, 1 h
Method: The toxicity of anisolactone in uninfected host RBCs was evaluated using the haemolysis assay, according to a protocol described previously by Sarkar et al. (2016) with some modifications. Freshly obtained RBCs were washed thrice with PBS (pH 7.4). The haemolysis assay was performed at 2% hematocrit with two-fold serial dilutions from 0.1 mg/ml of test compounds in a final volume of 200 μl, followed by incubation at 37° C. for 1 h. 1% Triton-X (v/v) was used as a positive control. Non-specific haemolysis was corrected for by using untreated RBCs as negative control. After incubation, the plates were centrifuged at 2000 rpm for 5 min and the absorbance of the supernatant was measured at 540 nm using a spectrophotometric plate reader (Tecan Sunrise, Switzerland) to measure the amount of haemoglobin released upon RBC lysis. The percentage of haemolysis was calculated as follows: [(Optical density (OD)540 of sample−OD540 of PBS)/(OD540 of 1% Triton X-100−OD540 of PBS)]×100. The compounds were tested in triplicates. Ethics approval for this study was obtained from the Institutional Review Board, National University of Singapore (IRB protocol reference: B-14-056).

[3] = 3D7, read-out: IC50 (in μg/ml) against P. falciparum 3D7
[4] = 3D7, read-out: IC50 against P. falciparum 3D7 (Table 4)
[5] = 3D7, read-out: IC50 against P. falciparum 3D7 (molar value in brackets)
[6] = DD2, read-out: IC50 (in μg/ml) against P. falciparum Dd2
[7] = DD2, read-out: IC50 against P. falciparum Dd2 (molar value in brackets)

Structure (SMILES): C[C@H]1[C@H](OC(=O)CCC(=O)O)O[C@@H]2O[C@@]3(C)CC[C@H]4[C@H](C)CC[C@@H]1[C@@]24OO3 [Artesunate, artesunate]
- IC50 [1, 3]: 0.000693 ± 1.11e-08 µg/mL
- IC50 [1, 4]: 0.000693 µg/mL
- IC50 [1, 5]: 1.8 nM
- IC50 [2, 6]: 0.00211 ± 6.8e-07 µg/mL
- IC50 [2, 7]: 5.48 nM
- CC50 at 48 h (in vitro): 5.63 ± 0.82 µg/mL (≈ 14.6 µM)
- SI (selectivity index) (NL20 cells; P. falciparum 3D7 IC50 versus NL20 CC50): 8123

Structure (SMILES): CCN(CC)CCCC(C)Nc1ccnc2cc(Cl)ccc12 (centres unmarked) [Chloroquine, chloroquine diphosphate]
- IC50 [1, 3]: 0.0128 ± 1.4e-05 µg/mL
- IC50 [1, 4]: 0.0128 µg/mL
- IC50 [1, 5]: 24.4 nM
- IC50 [2, 6]: 0.16 ± 0.04 µg/mL
- IC50 [2, 7]: 310 nM

- IC50 ([1]; 3D7, n = 3, 42-48 hour incubation, read-out: IC50 (in μg/ml) against P. falciparum 3D7): 7.5 µg/mL
- IC50 ([1]; 3D7, n=3, read-out: IC50 against P. falciparum 3D7 (molar value in brackets)): 20500 nM
Structure (SMILES): CC1=CC(C/C(C)=C/COc2c3ccoc3cc3oc(=O)ccc23)OC1=O (centres unmarked) [Compound 1, anisolactone]
- IC50 ([1]; 3D7, as used for the selectivity index, read-out: IC50 against P. falciparum 3D7 (Table 4)): 7.5 µg/mL
- cytotoxic effects on host cells (NL20) (NL20 cells): did not exhibit cytotoxic effects
- % Haemolysis (uninfected host RBCs): 0.99 ± 0.28%
